Test results taken from patent publication US9826761B2, “Compositions and methods for mitigating dietary sulfur in animals” (SarTec Corporation, priority 2008, dated 2017).

Assay: Precipitating activity: rumen fluid containing manganese compound titrated with 1.0M Na2S, silver/sulfide electrode
Design: species or system Holstein cows
Conditions: 200 mM MnO(II) in rumen fluid
Procedure: Next, 0.28 g of MnO(II) was placed in a 100 ml beaker and 20 ml of rumen fluid was added. Then 0.17 g of MnO2(IV) was placed in 100 ml beaker and 20 ml of rumen fluid was added. Each of these compositions, in addition to a rumen fluid control, was then titrated with a 1.0M solution of Na2S. The progress of the reaction was followed using the same silver/sulfide electrode set-up described above (Orion, Ion Plus Silver/Sulfide 9616BNWP).

SMILES: [O]=[Mn] [MnO(II)]
- mVolts (Vol 1M Na2S 0.0): 604.6 mVolts
- mVolts (Vol 1M Na2S 0.1): 674.0 mVolts
- mVolts (Vol 1M Na2S 0.2): 702.9 mVolts
- mVolts (Vol 1M Na2S 0.4): 724.5 mVolts
- mVolts (Vol 1M Na2S 0.5): 745.7 mVolts
- mVolts (Vol 1M Na2S 0.6): 760.6 mVolts
- mVolts (Vol 1M Na2S 0.7): 777.3 mVolts
- mVolts (Vol 1M Na2S 0.8): 789.8 mVolts
- mVolts (Vol 1M Na2S 0.9): 803.7 mVolts
- mVolts (Vol 1M Na2S 1.0): 803.9 mVolts
- mVolts (Vol 1M Na2S 1.1): 825.2 mVolts
- mVolts (Vol 1M Na2S 1.3): 833.7 mVolts
- mVolts (Vol 1M Na2S 1.4): 843.1 mVolts
- mVolts (Vol 1M Na2S 1.5): 848.0 mVolts
- mVolts (Vol 1M Na2S 1.6): 852.1 mVolts
